Source: BindingDB's records for doi:10.1016/j.bmc.2010.06.025 (Wayne State University, 2010)

Legend:
[1] = target: D(2) dopamine receptor (Rattus norvegicus, UniProt P61169); test: Displacement of [3H]spiperone from rat D2 receptor expressed in HEK293 cells
[2] = target: D(3) dopamine receptor (Rattus norvegicus, UniProt P19020); test: Displacement of [3H]spiperone from rat D3 receptor expressed in HEK293 cells
Chain of D(3) dopamine receptor (P19020 whole entry): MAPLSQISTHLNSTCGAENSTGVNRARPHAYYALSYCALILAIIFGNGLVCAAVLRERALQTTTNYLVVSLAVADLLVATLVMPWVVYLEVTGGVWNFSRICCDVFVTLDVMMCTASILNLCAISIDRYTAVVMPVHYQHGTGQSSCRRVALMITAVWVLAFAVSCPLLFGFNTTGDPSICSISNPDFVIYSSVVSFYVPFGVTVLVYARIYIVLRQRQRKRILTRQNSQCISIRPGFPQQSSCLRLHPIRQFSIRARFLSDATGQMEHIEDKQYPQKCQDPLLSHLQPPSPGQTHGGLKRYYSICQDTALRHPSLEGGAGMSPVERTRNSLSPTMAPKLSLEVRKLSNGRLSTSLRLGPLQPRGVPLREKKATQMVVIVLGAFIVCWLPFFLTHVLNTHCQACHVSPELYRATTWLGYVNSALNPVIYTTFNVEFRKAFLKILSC

Chain of D(2) dopamine receptor (P61169 whole entry): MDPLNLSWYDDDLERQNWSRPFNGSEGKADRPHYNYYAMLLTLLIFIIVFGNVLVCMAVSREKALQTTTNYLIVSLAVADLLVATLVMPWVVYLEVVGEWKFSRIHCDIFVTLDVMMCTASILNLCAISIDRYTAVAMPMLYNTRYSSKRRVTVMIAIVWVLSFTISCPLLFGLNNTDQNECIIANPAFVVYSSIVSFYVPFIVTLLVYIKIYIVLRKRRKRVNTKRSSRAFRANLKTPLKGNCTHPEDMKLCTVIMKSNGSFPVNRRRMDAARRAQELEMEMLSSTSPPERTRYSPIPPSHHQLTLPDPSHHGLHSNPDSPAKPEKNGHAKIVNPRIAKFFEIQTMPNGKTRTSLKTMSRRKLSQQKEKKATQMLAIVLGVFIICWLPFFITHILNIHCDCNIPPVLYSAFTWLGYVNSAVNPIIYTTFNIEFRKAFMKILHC

Compound CCCN(CCN1CCN(c2ccc(-c3ccncc3)cc2)CC1)C1CCc2ccc(O)cc2C1 (stereo not drawn) [(+)-7-(propyl(2-(4-(4-(pyridin-4-yl)-phenyl)piperazin-1-yl)ethyl)amino)-5,6,7,8-tetrahydronaphthalen-2-ol] has a Ki [1] of 0.399 µM and a Ki [2] of 0.0162 µM.
